Assay results as given in ChEMBL document CHEMBL1158648, “The Lignans of Polygala polygama (Polygalaceae): Deoxypodophyllotoxin and Three New Lignan Lactones” (1979).

test system: P388; assay: In vivo antitumor activity against mouse P388 cells at 40 mg/kg; format: functional

| Compound | T/C |
| --- | --- |
| COc1cc([C@@H]2c3cc4c(cc3[C@H](O)[C@H]3COC(=O)[C@H]23)OCO4)cc(OC)c1O | 144% |
| COc1ccc2c(c1OC)[C@@H](c1ccc3c(c1)OCO3)C1=C(COC1=O)C2 | 144% |
| COc1cc([C@@H]2c3cc4c(cc3C[C@H]3COC(=O)[C@@H]32)OCO4)cc(OC)c1OC [DESOXYPODOPHYLLOTOXIN] | 144% |
| COc1cc([C@@H]2c3cc4c(cc3[C@H](O)[C@H]3COC(=O)[C@H]23)OCO4)cc(OC)c1OC [PODOFILOX] | 144% |
| O=C1OC[C@@H]2Cc3cc4c(cc3[C@@H](c3ccc5c(c3)OCO5)[C@@H]12)OCO4 [POLYGAMAIN] | 144% |
| COc1ccc2c(c1OC)[C@@H](c1ccc3c(c1)OCO3)[C@H]1C(=O)OC[C@@H]1C2 [POLYGAMATIN] | 144% |
